Twelve compounds from ChEMBL document CHEMBL1201862, “PubChem BioAssay data set” (2004) can be followed below.

Common to all, as to assay: DTP human tumour cell line panel, 48 h
Experiment [1] relates to MOLT-4.
Experiment [2] has as its system DMS-114.
Experiment [3] relates to TK-10.
Experiment [4] concerns HCT-15.
For experiment [5], the system named is LOX IMVI.
The subject of experiment [6] is Malme-3M.
The test system of experiment [7] is UACC-257.
The test system of experiment [8] is HOP-62.
Experiment [9] has as its system UACC-62.
Experiment [10] has as its system M14.
Experiment [11] deals with HCC 2998.
Experiment [12] concerns EKVX.
The test system of experiment [13] is RPMI-8226.
The test system of experiment [14] is HOP-92.
Experiment [15] deals with SNB-75.
Experiment [16] has as its system NCI-H522.
For experiment [17], the system named is SK-MEL-2.
The test system of experiment [18] is CAKI-1.
For experiment [19], the system named is NCI-H226.
The subject of experiment [20] is MDA-MB-435.

The structures appear in SMILES notation.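 All cell lines were grown in 96-well plates and treated with compound for 48 hours. The concentration for 50% growth inhibition is given as GI50.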 Activity calls are given as the source filed them. Rule as the data show it: active = GI50 up to about 1.1 µM and inactive = higher.

Take `COc1ccc(O)cc1C=O`: the GI50 in experiment [1] is 67.6 µM (inactive); in [2] it was 32.8 µM (inactive); in experiment [3], > 100 µM (inactive); in [4] it was 37.6 µM; in experiment [5], 54 µM (inactive); in [6], 46.3 µM (inactive). For the same compound, the GI50 in [7] was 48.1 µM (inactive); in experiment [8], > 100 µM (inactive); in experiment [9], 32.7 µM (inactive); in [10], 43.2 µM (inactive); in experiment [11], > 100 µM (inactive); in experiment [12], > 100 µM (inactive). Also, the GI50 in experiment [13] is 60.1 µM (inactive); in experiment [14] it was > 100 µM (inactive).
Consider `CC1(C)C2CCC13C(=O)C1OC3(C2)C2C(=O)N(c3ccccc3)C(=O)C12` (configuration not stated), for which the GI50 is > 100 µM (inactive) in [1]; > 100 µM (inactive) in experiment [2]; > 100 µM (inactive) in experiment [15]; > 100 µM (inactive) in [3]; greater than 100 µM in [4]; 20.1 µM (inactive) in [16]. The GI50 in [5], in [6], in [7], in experiment [8], in experiment [17] and in experiment [9] was > 100 µM (inactive) each time. For the same compound, the GI50 in experiment [10], in [11], in experiment [18], in [19], in experiment [12] and in experiment [13] was > 100 µM (inactive) throughout.
Take `Cn1ncnc1CCc1ccccc1`: the GI50 in experiment [1] was > 100 µM (inactive); in experiment [2], > 100 µM (inactive); in experiment [15], > 100 µM (inactive); in experiment [3] it was > 100 µM (inactive); in experiment [4], greater than 100 µM; in experiment [16], > 100 µM (inactive). Moreover, the GI50 in experiment [5], in experiment [6], in experiment [7], in experiment [8], in experiment [17] and in experiment [9] was > 100 µM (inactive) throughout. Also, the GI50 in experiment [10], in experiment [18], in experiment [19], in experiment [13] and in experiment [14] was > 100 µM (inactive) each time.
Consider `C[C@@H]1C[C@]2(C[C@@H](C)C3[C@@H](CC4(C)[C@@H]5CCC6C(C)(C)OC(=O)C=C[C@]67C[C@@]5(CC[C@]34C)OO7)O2)OC1=O` (some centres not stated), for which the GI50 in [2] is > 100 µM (inactive); in experiment [15], 18.4 µM (inactive); in experiment [3] it was 52.1 µM (inactive); in [4], greater than 100 µM; in [16], 29.6 µM (inactive); in experiment [5], 44.2 µM (inactive). In addition, the GI50 is 37.9 µM (inactive) in [6]; 55.2 µM (inactive) in [7]; 50.4 µM (inactive) in experiment [17]; 21.2 µM (inactive) in experiment [9]; 48.1 µM (inactive) in [10]; > 100 µM (inactive) in experiment [11]. Also, the GI50 in experiment [19] was 24.8 µM (inactive); in experiment [13], > 100 µM (inactive).
Take `CC(C)(C)c1ccccc1NS(=O)(=O)c1ccccc1`: the GI50 is 38 µM (inactive) in experiment [1]; 49.9 µM (inactive) in experiment [2]; > 100 µM (inactive) in [15]; > 100 µM (inactive) in [3]; greater than 100 µM in experiment [4]; > 100 µM (inactive) in experiment [6]. The GI50 in experiment [7] was 45.1 µM (inactive); in [8], > 100 µM (inactive); in experiment [17], > 100 µM (inactive); in experiment [9], > 100 µM (inactive); in experiment [10], 96.2 µM (inactive); in experiment [11], > 100 µM (inactive). The GI50 in [18] is 64 µM (inactive); in experiment [19], 21.9 µM (inactive); in experiment [12], > 100 µM (inactive); in [13], 60.8 µM (inactive).
For the compound `NS(=O)(=O)c1ccc(NC(=O)c2cccn3c(=O)c4ccccc4nc23)cc1`, the GI50 in experiment [1] was 80.2 µM (inactive); in experiment [2] it was > 100 µM (inactive); in [15], > 100 µM (inactive); in experiment [3] it was > 100 µM (inactive); in experiment [16] it was > 100 µM (inactive); in experiment [5], 86.3 µM (inactive). Also, the GI50 in experiment [6], in [7], in experiment [8], in [9], in experiment [10] and in [18] was > 100 µM (inactive) throughout. The GI50 in [19], in [12], in [13] and in experiment [14] was > 100 µM (inactive) in each case.
`N#CCCN(CCC#N)c1ccc(/C=C2\N=C(COc3ccc(Cl)cc3Cl)OC2=O)cc1`: the GI50 in [1] was > 100 µM (inactive); in experiment [2], > 100 µM (inactive); in experiment [15] it was 71.8 µM (inactive); in experiment [3], > 100 µM (inactive); in [4] it was greater than 100 µM; in [16], 29.9 µM (inactive). Further, the GI50 in experiment [5], in experiment [6], in experiment [7], in experiment [8], in [17] and in experiment [9] was > 100 µM (inactive) in each case. The GI50 in experiment [10], in experiment [11], in experiment [18], in [12] and in [13] was > 100 µM (inactive) each time.
With `N/N=C1\c2ccccc2C2/C(=N\N)c3ccccc3C12` (configuration not stated), the GI50 is > 100 µM (inactive) in experiment [1]; > 100 µM (inactive) in experiment [2]; 56.1 µM (inactive) in experiment [15]; > 100 µM (inactive) in experiment [3]; greater than 100 µM in [4]; > 100 µM (inactive) in experiment [16]. Further, the GI50 in experiment [5], in experiment [6], in [7], in experiment [17], in [9] and in experiment [10] was > 100 µM (inactive) each time. For the same compound, the GI50 in experiment [11], in experiment [18], in [12], in [13] and in experiment [14] was > 100 µM (inactive) in each case.
Consider `COC(=O)CC[C@]12C[C@]13CC[C@]1(C)C4C(C)C[C@]5(CC(C)C(=O)O5)OC4CC1(C)C3CCC2C(C)(C)O` (some centres not stated), for which the GI50 in [2] was 59.7 µM (inactive); in experiment [15] it was 75 µM (inactive); in [3], > 100 µM (inactive); in [4], 50.9 µM; in experiment [16], 62.1 µM (inactive); in [5], 32.5 µM (inactive). The GI50 is > 100 µM (inactive) in experiment [6]; 67.1 µM (inactive) in experiment [7]; 45.6 µM (inactive) in experiment [8]; 26.7 µM (inactive) in [17]; > 10 µM (inactive) in [9]; > 100 µM (inactive) in experiment [10]. The GI50 in experiment [11] was 51.5 µM (inactive); in [12], > 100 µM (inactive); in experiment [13], 25.4 µM (inactive); in experiment [14], 23.7 µM (inactive).
Consider `Oc1c2c(nc3cc4c(cc13)OCO4)-c1ccccc1CC2`, for which the GI50 is > 100 µM (inactive) in experiment [1]; > 100 µM (inactive) in [2]; 23.6 µM (inactive) in experiment [15]; > 100 µM (inactive) in experiment [3]; greater than 100 µM in experiment [4]; > 100 µM (inactive) in experiment [5]. For the same compound, the GI50 in experiment [6], in [7], in [8], in experiment [17], in [9] and in [10] was > 100 µM (inactive) in each case. The GI50 in experiment [11], in [19], in experiment [12] and in experiment [13] was > 100 µM (inactive) throughout.
Take `COC(=O)CCC1=CCC2(SC)C(=O)Nc3cccc1c32` (configuration not stated): the GI50 in experiment [1] is > 100 µM (inactive); in experiment [20] it was > 100 µM (inactive); in experiment [15], > 100 µM (inactive); in experiment [3] it was > 100 µM (inactive); in experiment [4] it was greater than 100 µM; in experiment [16], > 100 µM (inactive). Also, the GI50 in experiment [5], in experiment [6], in experiment [7], in experiment [8], in [17] and in experiment [9] was > 100 µM (inactive) in each case. The GI50 in experiment [10] was > 100 µM (inactive); in [11], > 100 µM (inactive); in [18], > 100 µM (inactive); in [19], > 100 µM (inactive); in experiment [12], 65.3 µM (inactive); in [13], > 100 µM (inactive). The GI50 in experiment [14] was > 100 µM (inactive).
With `COc1ccc(C2S/C(=C\c3cccc(O)c3)C(=O)N2NC(=O)Cc2ccccc2)cc1` (configuration not stated), the GI50 is > 100 µM (inactive) in experiment [1]; > 100 µM (inactive) in [2]; > 100 µM (inactive) in experiment [15]; > 100 µM (inactive) in experiment [3]; greater than 100 µM in experiment [4]; > 100 µM (inactive) in experiment [16]. For the same compound, the GI50 in experiment [5], in experiment [6], in experiment [7], in experiment [8], in [17] and in experiment [9] was > 100 µM (inactive) each time. The GI50 in experiment [10], in experiment [18], in experiment [19], in experiment [13] and in [14] was > 100 µM (inactive) throughout.
